# Results published in patent US20210254056A1, “IDENTIFICATION AND TARGETED MODULATION OF GENE SIGNALING NETWORKS” (CAMP4 THERAPEUTICS CORPORATION, priority 2017, published 2021).
# What was measured:
# [1] = tested on: primary human hepatocytes; assay: RNA-seq of primary human hepatocytes treated with 39 small molecules (pilot and validation); details: pilot RNA-seq study of Example 2; significance: FPKM≥0.5, log 2(fold change)≥1, q-value ≤0.05
# hepatocytes [2] = assay: qRT-PCR validation of the Example 12 RNA-seq results;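 further: Compound-treated versus DMSO control, target Ct normalized to GAPDH or β-actin reference (ΔΔCt method), positive values mean higher expression than DMSO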
# hepatocytes [3] = tested on: hepatocytes
# hepatocytes [4] = tested on: hepatocytes; remark: listed apart in the source
# hepatocytes [5] = assay: RNA-seq of hepatocytes stimulated with the compounds of Table 68; details: hepatocytes, RNA-seq
smiles,measurement,setting,value
"CO[C@H]1/C=C/O[C@@]2(C)Oc3c(C)c(O)c4c(O)c(c(/C=N/N5CCN(C)CC5)c(O)c4c3C2=O)NC(=O)/C(C)=C\C=C\[C@H](C)[C@H](O)[C@@H](C)[C@@H](O)[C@@H](C)[C@H](OC(C)=O)[C@@H]1C [MT-901, Rifampicin]",Number (#) of genes having significantly changed expression,[1],90
same,"qRT-PCR log2fc, AGTR1",hepatocytes [2]; log 2 fold change in AGTR1 gene expression,−0.37
same,"qRT-PCR log2fc, ALAS1",hepatocytes [2]; log 2 fold change in ALAS1 gene expression,0.3
same,"qRT-PCR log2fc, CA12",hepatocytes [2]; log 2 fold change in CA12 gene expression,0.53
same,"qRT-PCR log2fc, ENO3",hepatocytes [2]; log 2 fold change in ENO3 gene expression,−0.06
same,"qRT-PCR log2fc, POR",hepatocytes [2]; log 2 fold change in POR gene expression,0.16
same,"qRT-PCR log2fc, SLC6A6",hepatocytes [2]; log 2 fold change in SLC6A6 gene expression,−0.14
same,"qRT-PCR log2fc, SLC6A20",hepatocytes [2]; log 2 fold change in SLC6A20 gene expression,−0.17
same,"qRT-PCR log2fc, SLC51B",hepatocytes [2]; log 2 fold change in SLC51B gene expression,1.72
same,"qRT-PCR log2fc, VLDLR",hepatocytes [2]; log 2 fold change in VLDLR gene expression,0.63
same,"qRT-PCR log2fc, CYP2C19",hepatocytes [3],−0.37
same,"DESeq log2fc, CYP7A1",hepatocytes [4],−1.44
same,"Cuffdiff log2fc, AGTR1","hepatocytes [5]; log 2 fold change in AGTR1 gene expression, Cuffdiff",1.1
same,"DESeq log2fc, AGTR1","hepatocytes [5]; log 2 fold change in AGTR1 gene expression, DESeq",1.18
same,"Cuffdiff log2fc, ALAS1","hepatocytes [5]; log 2 fold change in ALAS1 gene expression, Cuffdiff",1.45
same,"DESeq log2fc, ALAS1","hepatocytes [5]; log 2 fold change in ALAS1 gene expression, DESeq",1.47
same,"Cuffdiff log2fc, CA12","hepatocytes [5]; log 2 fold change in CA12 gene expression, Cuffdiff",1.53
same,"DESeq log2fc, CA12","hepatocytes [5]; log 2 fold change in CA12 gene expression, DESeq",1.56
same,"DESeq log2fc, CYP2C19","hepatocytes [5]; log 2 fold change in CYP2C19 gene expression, DESeq",2.3
same,"Cuffdiff log2fc, ENO3","hepatocytes [5]; log 2 fold change in ENO3 gene expression, Cuffdiff",−1.13
same,"DESeq log2fc, ENO3","hepatocytes [5]; log 2 fold change in ENO3 gene expression, DESeq",−0.97
same,"Cuffdiff log2fc, POR","hepatocytes [5]; log 2 fold change in POR gene expression, Cuffdiff",1.13
same,"DESeq log2fc, POR","hepatocytes [5]; log 2 fold change in POR gene expression, DESeq",1.17
same,"Cuffdiff log2fc, SLC6A6","hepatocytes [5]; log 2 fold change in SLC6A6 gene expression, Cuffdiff",1.28
same,"DESeq log2fc, SLC6A6","hepatocytes [5]; log 2 fold change in SLC6A6 gene expression, DESeq",1.39
same,"Cuffdiff log2fc, SLC6A20","hepatocytes [5]; log 2 fold change in SLC6A20 gene expression, Cuffdiff",1.03
same,"DESeq log2fc, SLC6A20","hepatocytes [5]; log 2 fold change in SLC6A20 gene expression, DESeq",1.06
same,"Cuffdiff log2fc, SLC51B","hepatocytes [5]; log 2 fold change in SLC51B gene expression, Cuffdiff",1.02
same,"DESeq log2fc, SLC51B","hepatocytes [5]; log 2 fold change in SLC51B gene expression, DESeq",1.19
same,"Cuffdiff log2fc, VLDLR","hepatocytes [5]; log 2 fold change in VLDLR gene expression, Cuffdiff",1.69
same,"DESeq log2fc, VLDLR","hepatocytes [5]; log 2 fold change in VLDLR gene expression, DESeq",1.71
